Reference: patent publication US10738028B2, “Spiro three-membered ring, spiro five-membered ring peptide deformylase inhibitor and use thereof in antibacteria and anti-tumor” (priority 2016, dated 2020)

Key:
[1] = system: HCT-116 colorectal cancer cell line; assay: CCK-8 proliferation inhibition; assay type: cell-based; details: Homo sapiens, HCT-116, 72 h, read-out: HCT116 inhibition rate/%
How it was run: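 Cells were plated overnight at 2000 cells/well, then compound in culture medium was added at a range of final concentrations. After 72 hours in a CO2 incubator, medium was replaced with 1:10 CCK-8 solution for the read-out.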

[2] = system: methemoglobin in blood samples of three healthy volunteers; assay: Toxicity on methemoglobin in vitro (whole blood with S9 and NADPH, absorbance at 630 nm); assay type: cell-based, human
Description: Because PDF inhibitors such as LBM415 and GSK1322322 can produce active species such as aromatic hydroxylamine and aromatic hydrazines in metabolic process, and cause human methemoglobinemia. To this end, continuous wavelength method was adopted in this invention to scan the absorption spectrum of blood samples in the wavelength range of 500 to 700 nm in the ultraviolet-visible spectrophotometer, and the contents of methemoglobin in blood samples of three healthy volunteers were calculated, after being effected by the synthesized compounds.
Experimental materials: Nicotinamide adenine dinucleotide phosphate (NADPH) reduction system: glucose-6-disodium phosphate, nicotinamide adenine dinucleoside phosphate and glucose-6-phosphate dehydrogenase (purchased from Shanghai yuanye Bio-Technology Co., Ltd) were added to 1 mL of phosphate buffer solution (PBS, pH 7.4), and the mixture was shaked in a shaker type water bath at 37° C. for 10 min, and then cooled to 0° C. Mixed human hepatocytes fraction S9 was purchased from Xenotech (20 mg S9 protein/1 mL suspension medium). Compounds were prepared to stock solution at a concentration of 50 mM, which was stored at −20° C. for use. Dapsone was used as positive control experimental reagent, which was purchased from Sigma Aldrich. 1% w/v triton X-100 was self-prepared. Blood samples were collected using Vacutainer tubes containing EDTA anticoagulants (BD, Franklin Lakes, USA), which were sampled from three healthy volunteers and used immediately after sampling.
Preparation of incubation system for blood samples and drugs: 250 μL of incubation system was consist of 220 μL of whole blood, 25 μL of S9 (final concentration: 2 mg S9 protein/mL incubation solution), 2.5 μL of NADPH form system (final concentration: 10 mM G-6-P, 1 mM NADP, 7.5 Units/mL) and 2.5 μL of stock solution of a compound (final concentration 500 μM). […] of incubation system was placed in an Eppendorf tube and incubated for 5 hours at 37° C. in water bath.
Determination of the content of methemoglobin: 60 μL of an incubated sample was taken and lysed with 3.0 mL of 1% Triton X-100. The content of methemoglobin (MetHb) was measured by an ultraviolet-visible spectrophotometer, with the Triton X-100 solution used as blank control. A sample was placed in a cuvette, 1 minute later, the spectrums of the sample in the wavelength range from 500 nm to 700 nm were recorded. The sample was added with 2 mg of potassium ferricyanide, and was allowed to stay stationary for 2 minutes for completely oxidization of ferrous iron in the sample, and standard spectrum of methemoglobin with saturated potassium ferricyanide. The percentage of methemoglobin formation (MetHb %) was obtained by the ratio of absorbance at 630 nm. MetHb %=(A′−AB′)/AM′, wherein, A′ was the total absorbance of the sample at 630 nm, AB′ was the base absorbance of the reduced blood in the sample at 630 nm, and AM′ was the absorbance of oxidized blood with saturated potassium ferricyanide at 630 nm.

CCCC[C@H](CN(O)C=O)C(=O)N1CC2(CC2)C[C@H]1C(=O)Nc1cccc(-c2cccnc2)c1 [Example 7, (S)-5-((R)-2-((N-hydroxyformamido)methyl)hexylcarbonyl)-N-(3-(pyridin-3-yl)phenyl)-5-5-azaspiro[2.4]heptane-6-amide]
inhibition at 30 µM [1]: 23% | MetHb % (n = 3) ([2]; 500 μM compound, whole blood + S9 + NADPH, 5 hours at 37° C.): 2.24 ± 0.05% | probability of methemoglobin formation in blood compared with the control drugs LBM415 and GSK1322322 ([2]; toxicity test in vitro, in words): lower probability of methemoglobin formation in blood
